Our source for the IC50, EC50 and inhibition values is patent US20230391772A1, “METHODS AND COMPOSITIONS FOR TARGETED PROTEIN DEGRADATION” (Ranok Therapeutics (Hangzhou) Co. Ltd., priority 2020, published 2023).

As a reminder, the EC50 is the concentration needed to bring the measured effect to its halfway point. Lower therefore signals an effect from little substance. Usually inhibition stands for the drop in the measured response relative to a control, in per cent.

The target in assay [1] is T1, HSP90a protein (Homo sapiens, UniProt P07900).
T1 construct: purchased BPS Bioscience 50298
The assay can be described thus: HSP90α-binding fluorescent polarization (FP) assay, FITC-geldanamycin probe. The following applies: FP competition with FITC-geldanamycin, 5 nM, 120 min at 25° C. How it is done:
HSP90α-Binding Fluorescent Polarization (FP) Assay
Binding of test compounds to HSP90a protein was measured by fluorescent polarization (FP) using the HSP90a (N-terminal) Assay Kit (BPS Bioscience, #50298), following the manufacturer's instructions, except as noted. Fluorescently labeled HSP90-binding compounds, either the provided FITC-geldanamycin (5 nM final concentration) or RNK04010, a triazolone-based HSP90 binding small molecule labeled with BODIPY through a piperizine-phenyl linker (5 nM final concentration) were employed. A 2.5-fold serial dilution of each test compound ranging from 20 μM to 5.2 nM was assayed for binding to HSP90a. After the final step of adding HSP90a protein to each assay well, plates were mixed by brief shaking, incubated at 25° C. for 120 min for FITC-geldanamycin or 300 min for RNK04010, and fluorescence was measured using a PerkinElmer EnVision Plate Reader.

The test system of assay [2] is MIA PaCa-2 human pancreatic carcinoma. Briefly: MIA PaCa-2 CCK-8 proliferation assay. The following applies: Homo sapiens, MIA PaCa-2, 72 h, MIA PaCa-2 cells. Type of assay: cell-based. The gist of the method: (§1)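 MIA PaCa-2 (2 copies KRAS(G12C)), NCI-H358 and NCI-H23 (1 copy KRAS(G12C) each) were exposed to compound in 3-fold serial dilutions from 20 μM to 1.02 nM. Viability was read as CCK-8 absorbance, and % inhibition was computed against DMSO-treated cells, with cell-free DMSO medium as blank.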

For assay [3], the target named is T1, HSP90a protein. Briefly: HSP90α-binding fluorescent polarization (FP) assay, BODIPY-labeled RNK04010 probe. The following applies: FP competition with RNK04010 (BODIPY-labeled), 5 nM, 300 min at 25° C. The gist of the method:
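Compound dilutions (20 μM to 5.2 nM, 2.5-fold) are combined with 5 nM final labeled probe, and HSP90a N-terminal protein is added last. Plates are shaken briefly and held at 25° C for 120 min (FITC-geldanamycin) or 300 min (BODIPY-RNK04010), then FP is measured.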

Assay [4] concerns NCI-H23 human non-small cell lung cancer. The assay can be described thus: NCI-H23 CCK-8 proliferation assay. Type of assay: cell-based. The note with it: NCI-H23 cells, 72 hr. The gist of the method:
as §1
On the technique in general: Formazan colour is commonly taken as a measure of viable cells.

Assay [5] addresses T2, KRAS(G12C) (Homo sapiens, UniProt P01116, G12C). Briefly: KRAS(G12C) Western blot protein degradation assay in MIA PaCa-2 cells. Type of assay: cell-based. The note with it: 48 hr. More on the design: host or cells: LU65A. How it is done: The following cancer cell lines were employed: BT-474 human breast carcinoma (ATCC, #HTB-20); MIA PaCa-2 human pancreatic carcinoma [2 copies KRAS(G12C)](ATCC, #CRL-1420); NCI-H23 human non-small cell lung cancer [1 copy KRAS(G12C)](ATCC, #CRL-5800); NCI-H358 human non-small cell lung cancer [1 copy KRAS(G12C)](ATCC, #CRL-5807); LU65A human lung carcinoma (Pharmaron, Beijing, China). Cell lines were cultured essentially according to ATCC and Pharmaron recommendations.
KRAS(G12C) Western Blot Protein Degradation Assay
The MIA PaCa-2 human pancreatic carcinoma cell line and LU65A human lung cancer cell line, which expresses KRAS(G12C), were seeded in 6- or 12-well tissue culture plates, and after 1 hr, test compounds were added at various concentrations and incubated at 37° C./5% CO2 for 48 hr (MIA Paca-2) and 6 hr (LU65A) respectively. Cells were then washed with cold PBS, aspirated and cold RIPA buffer containing a protease/phosphatase inhibitor cocktail was added to lyse cells. After centrifugation, the total protein concentrations of cell lysates were determined using the BCA protein assay. Samples were normalized for equivalent protein concentrations, 5×SDS-PAGE loading buffer added and denatured at 100° C. for 10 min. 20 μl of each sample/well was loaded on a SDS-PAGE gel and electrophoresed for 20 min at 80 V, then 120 V for 1.5 hr. Gels were then electroblotted to nitrocellulose membranes using a wet-transfer method at 250 mA for 2.5 hr. Membranes were incubated with blocking buffer for 1 hr and washed 3 times with TBST for 5 min. Membranes were then incubated with anti-KRAS (Sigma-Aldrich, #SAB1404011) and anti-β-Actin monoclonal antibodies (Cell Signaling Technology, #3700) diluted in blocking buffer at 4° C. overnight per the manufacturer's recommendations. After washing 3 times, blots were incubated with appropriately labeled secondary antibodies for 1 hr at room temperature and washed again. Fluorescence imaging and quantitation was performed using a LI-COR Odyssey. Results was analyzed using GraphPad Prism 7 software. Compound degradation of was determined by the following equation and DC50 values (the concentration at which 50% of the maximal degradation of KRAS occurs) calculated using GraphPad Prism 7 software:
% Inhibition=100−(D−B)/(S−B)*100%. • S: Fluorescence intensity of cells with antibody • D: Fluorescence intensity of compound-treated cells with antibody • B: Fluorescence intensity of cells without antibody
For orientation: Immunoblotting shows a protein as a band on a membrane.

The test system of assay [6] is NCI-H358 human non-small cell lung cancer. Briefly: NCI-H358 CCK-8 proliferation assay. Type of assay: cell-based. The following applies: NCI-H358 cells, 72 hr. Put shortly:
as §1

In assay [7] the target is T2, KRAS(G12C). The assay can be described thus: KRAS(G12C)/SOS1 homogeneous time-resolved fluorescence (HTRF) assay. More on the design: purchased Cisbio 63ADK000CB16PEG. The note with it: absence of GTP, 4° C. for 3 hr, read-out: KRAS (G12C) binding. The gist of the method:
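Three-hour incubation at 4 °C of 3-fold compound dilutions (lowest 1.02 nM) with KRAS(G12C), SOS1 and detection reagents, GTP absent. Disruption of the KRAS(G12C)/SOS1 complex detected by time-resolved fluorescence.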
For orientation: TR-FRET usually uses a lanthanide donor and a delayed reading to cut background.

T2 sequence (P01116 1-188 isoform P01116-2 G12C): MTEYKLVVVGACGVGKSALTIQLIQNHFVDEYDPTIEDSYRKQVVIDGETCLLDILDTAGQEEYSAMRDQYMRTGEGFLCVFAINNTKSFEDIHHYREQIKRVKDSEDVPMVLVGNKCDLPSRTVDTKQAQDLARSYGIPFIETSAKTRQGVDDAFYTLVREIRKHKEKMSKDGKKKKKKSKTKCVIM

`CC(C)c1cc(-c2nnc(O)n2-c2ccc(CN3CCC(C(=O)N4CC[C@@H](COc5nc6c(c(N7CCN(C(N)=O)[C@@H](CC#N)C7)n5)CCN(c5cccc7cccc(Cl)c57)C6)C4)CC3)cc2)c(O)cc1O` [Compound 169, (S)-4-(7-(8-chloronaphthalen-1-yl)-2-(((R)-1-(1-(4-(3-(2,4-dihydroxy-5-isopropylphenyl)-5-hydroxy-4H-1,2,4-triazol-4-yl)benzyl)piperidine-4-carbonyl)pyrrolidin-3-yl)methoxy)-5,6,7,8-tetrahydropyrido[3,4-d]pyrimidin-4-yl)-2-(cyanomethyl)piperazine-1-carboxamide] registered an IC50 on HSP90a protein [1] of less than 100 nM. For the same compound, the EC50 in assay [2] was 100 to 1000 nM.
Consider `C=CC(=O)N1CCN(c2nc(OC[C@@H]3CCN(C(=O)c4ccc5c(c4)CN(C(=O)c4cc(C(C)C)c(OC)cc4O)C5)C3)nc3c2CCN(c2cccc4cccc(Cl)c24)C3)C[C@@H]1CC#N` [Compound 173, 2-((S)-1-acryloyl-4-(7-(8-chloronaphthalen-1-yl)-2-(((R)-1-(2-(2-hydroxy-5-isopropyl-4-methoxybenzoyl)isoindoline-5-carbonyl)pyrrolidin-3-yl)methoxy)-5,6,7,8-tetrahydropyrido[3,4-d]pyrimidin-4-yl)piperazin-2-yl)acetonitrile], for which the IC50 at HSP90a protein [1] and on HSP90a protein [3] was greater than 1000 nM throughout. The compound further had an EC50 in assay [2] greater than 1000 nM.
On HSP90a protein [1], `C=C(F)C(=O)N1CCN(c2nc(OC[C@@H]3CCN(CCCOCCC(=O)NCc4ccc(-n5c(O)nnc5-c5cc(C(C)C)c(O)cc5O)cc4)C3)nc3c2CCN(c2cccc4cccc(Cl)c24)C3)C[C@@H]1CC#N` [Compound 170] registered an IC50 of 100 to 1000 nM. This compound also registered an EC50 in assay [2] greater than 1000 nM.
On HSP90a protein [1], `C=C(F)C(=O)N1CCN(c2nc(OC[C@@H]3CCN(C(=O)c4cc(C(C)C)c(O)cc4O)C3)nc3c2CCN(c2cccc4cccc(Cl)c24)C3)C[C@@H]1CC#N` [Compound 171, 2-((S)-4-(7-(8-chloronaphthalen-1-yl)-2-(((R)-1-(2,4-dihydroxy-5-isopropylbenzoyl)pyrrolidin-3-yl)methoxy)-5,6,7,8-tetrahydropyrido[3,4-d]pyrimidin-4-yl)-1-(2-fluoroacryloyl)piperazin-2-yl)acetonitrile] came in with an IC50 greater than 1000 nM. Besides, in assay [2], the EC50 is greater than 1000 nM.
For `C=C(F)C(=O)N1CCN(c2nc(OC[C@@H]3CCN(C(=O)c4cc(CC)c(O)cc4O)C3)nc3c2CCN(c2cccc4cccc(Cl)c24)C3)C[C@@H]1CC#N` [Compound 174, 2-((S)-4-(7-(8-chloronaphthalen-1-yl)-2-(((R)-1-(5-ethyl-2,4-dihydroxybenzoyl)pyrrolidin-3-yl)methoxy)-5,6,7,8-tetrahydropyrido[3,4-d]pyrimidin-4-yl)-1-(2-fluoroacryloyl)piperazin-2-yl)acetonitrile], the IC50 at HSP90a protein [1] and at HSP90a protein [3] was greater than 1000 nM each time. In assay [2], this compound displayed an EC50 greater than 1000 nM.
Consider `C=C(F)C(=O)N1CCN(c2nc(OC[C@@H]3CCN(C(=O)c4ccc5c(c4)CN(C(=O)c4cc(C(C)C)c(O)cc4O)C5)C3)nc3c2CCN(c2cccc4cccc(Cl)c24)C3)C[C@@H]1CC#N` [Compound 165, 2-((S)-4-(7-(8-chloronaphthalen-1-yl)-2-(((R)-1-(2-(2,4-dihydroxy-5-isopropylbenzoyl)isoindoline-5-carbonyl)pyrrolidin-3-yl)methoxy)-5,6,7,8-tetrahydropyrido[3,4-d]pyrimidin-4-yl)-1-(2-fluoroacryloyl)piperazin-2-yl)acetonitrile], for which, at HSP90a protein [1], the IC50 lay in the range of 100 to 1000 nM. In addition, the EC50 in assay [2] was greater than 1000 nM.
The compound `C=C(F)C(=O)N1CCN(c2nc(OC[C@@H]3CCN(C(=O)C4CCN(Cc5ccc(-n6c(C(N)=O)nnc6-c6cc(C(C)C)c(O)cc6O)cc5)CC4)C3)nc3c2CCN(c2cccc4cccc(Cl)c24)C3)C[C@@H]1CC#N` [Compound 166, 4-(4-((4-((R)-3-(((7-(8-chloronaphthalen-1-yl)-4-((S)-3-(cyanomethyl)-4-(2-fluoroacryloyl)piperazin-1-yl)-5,6,7,8-tetrahydropyrido[3,4-d]pyrimidin-2-yl)oxy)methyl)pyrrolidine-1-carbonyl)piperidin-1-yl)methyl)phenyl)-5-(2,4-dihydroxy-5-isopropylphenyl)-4H-1,2,4-triazole-3-carboxamide] registered an IC50 at HSP90a protein [1] of 100 to 1000 nM. The compound also came in with an EC50 in assay [2] of less than 100 nM.
Consider `C=CC(=O)N1CCN(c2nc(NCCC(=O)N3CCC(Cc4ccc(CN(C)Cc5ccc(-n6c(C(=O)NCC(F)(F)F)nnc6-c6cc(C(C)C)c(O)cc6O)cc5)cc4)CC3)nc3c2CCN(c2cc(O)cc4ccccc24)C3)CC1` [Compound 16, 4-(4-(((4-((1-(3-((4-(4-acryloylpiperazin-1-yl)-7-(3-hydroxynaphthalen-1-yl)-5,6,7,8-tetrahydropyrido[3,4-d]pyrimidin-2-yl)amino)propanoyl)piperidin-4-yl)methyl)benzyl)(methyl)amino)methyl)phenyl)-5-(2,4-dihydroxy-5-isopropylphenyl)-N-(2,2,2-trifluoroethyl)-4H-1,2,4-triazole-3-carboxamide, trifluoroacetic acid], for which the values for the EC50 in assay [4], in assay [6] and in assay [2] were 100 to 1000 nM, 100 to 1000 nM and less than 100 nM, respectively. In addition, the inhibition at 0.1562 µM on KRAS(G12C) [5] (156.2 nM) was less than 33%. On KRAS(G12C) [5] (312.5 nM), this compound returned an inhibition at 0.3125 µM of less than 33%. The compound further came in with an inhibition at 0.625 µM at KRAS(G12C) [5] (625 nM) of less than 33%. Moreover, the inhibition at 1.25 µM at KRAS(G12C) [5] (1250 nM) was less than 33%. Moreover, the inhibition at 2.5 µM on KRAS(G12C) [5] (2500 nM) is less than 33%. This compound gave an inhibition at 5 µM at KRAS(G12C) [5] (5000 nM) of less than 33%. This compound also yielded an inhibition at 10 µM against KRAS(G12C) [5] (10,000 nM) of less than 33%. Further, the IC50 at HSP90a protein [3] and at KRAS(G12C) [7] was greater than 1000 nM in each case.
In turn, `C=C(F)C(=O)N1CCN(c2nc(OC[C@@H]3CCN(C(=O)C4CCN(Cc5ccc(-n6c(O)nnc6-c6cc(CC)c(O)cc6O)cc5)CC4)C3)nc3c2CCN(c2cccc4cccc(Cl)c24)C3)C[C@@H]1CC#N` [Compound 167, 2-((S)-4-(7-(8-chloronaphthalen-1-yl)-2-(((R)-1-(1-(4-(3-(5-ethyl-2,4-dihydroxyphenyl)-5-hydroxy-4H-1,2,4-triazol-4-yl)benzyl)piperidine-4-carbonyl)pyrrolidin-3-yl)methoxy)-5,6,7,8-tetrahydropyrido[3,4-d]pyrimidin-4-yl)-1-(2-fluoroacryloyl)piperazin-2-yl)acetonitrile] yielded an IC50 on HSP90a protein [1] of less than 100 nM. In addition, in assay [2], the EC50 lay in the range of 100 to 1000 nM.
